A compilation of properties of binary mixtures (doi:10.1021/je00020a016)

Test: excess molar enthalpy (molar enthalpy of mixing); xn = mol fraction of the nth substance listed
Conditions: 100 kPa

CCOC(=O)OCC + CC1COC(=O)O1
excess molar enthalpy [kcal/mol]
Conditions	298.15 K	313.15 K
x2 = 0.0482	–	0.0351
x2 = 0.0668	0.033	–
x2 = 0.0919	–	0.0559
x2 = 0.1066	0.0504	–
x2 = 0.1518	0.0631	–
x2 = 0.1528	–	0.0698
x2 = 0.1926	0.07	–
x2 = 0.1933	–	0.0755
x2 = 0.2623	0.0784	–
x2 = 0.2644	–	0.0846
x2 = 0.3231	0.0593	–
x2 = 0.4172	0.0605	–
x2 = 0.4183	–	0.0915
x2 = 0.4884	0.0822	–
x2 = 0.4895	–	0.0894
x2 = 0.5888	0.0765	–
x2 = 0.6824	0.066	–
x2 = 0.742	0.0583	0.0607
x2 = 0.8118	0.0452	–
x2 = 0.8519	0.0373	0.0387
x2 = 0.8962	0.0263	0.0284
x2 = 0.9452	0.0139	0.0151
x2 = 0.9718	0.00765	0.00789

CC1COC(=O)O1 (stereo not drawn) + COC(=O)OC
Conditions	excess molar enthalpy [kcal/mol]
298.15 K, x1 = 0.0474	0.0131
298.15 K, x1 = 0.0905	0.0203
298.15 K, x1 = 0.1106	0.0227
298.15 K, x1 = 0.1428	0.0253
298.15 K, x1 = 0.1993	0.0272
298.15 K, x1 = 0.2491	0.0272
298.15 K, x1 = 0.3989	0.0244
298.15 K, x1 = 0.4988	0.0217
298.15 K, x1 = 0.5989	0.0184
298.15 K, x1 = 0.6656	0.0158
298.15 K, x1 = 0.7491	0.0127
298.15 K, x1 = 0.7993	0.0103
298.15 K, x1 = 0.8566	0.00741
298.15 K, x1 = 0.8884	0.0055
298.15 K, x1 = 0.9228	0.00382
298.15 K, x1 = 0.9598	0.00191
313.15 K, x1 = 0.0658	0.0217
313.15 K, x1 = 0.1429	0.0284
313.15 K, x1 = 0.2001	0.0296
313.15 K, x1 = 0.2502	0.0294
313.15 K, x1 = 0.3335	0.0284
313.15 K, x1 = 0.4002	0.0268
313.15 K, x1 = 0.5002	0.0232
313.15 K, x1 = 0.6003	0.0191
313.15 K, x1 = 0.6669	0.0167
313.15 K, x1 = 0.7502	0.0129
313.15 K, x1 = 0.8001	0.0108
313.15 K, x1 = 0.8563	0.00813
313.15 K, x1 = 0.889	0.00598
313.15 K, x1 = 0.96	0.00215

CCOC(=O)OCC + COC(=O)OC
excess molar enthalpy [kcal/mol]
Conditions	298.15 K	313.15 K
x2 = 0.0565	0.00765	0.00645
x2 = 0.107	0.0148	–
x2 = 0.1522	–	0.0179
x2 = 0.1932	–	0.0213
x2 = 0.1934	0.0234	–
x2 = 0.2643	–	0.0272
x2 = 0.3241	0.0349	–
x2 = 0.4181	–	0.0368
x2 = 0.4892	–	0.0387
x2 = 0.5896	–	0.0387
x2 = 0.6831	–	0.0349
x2 = 0.6834	0.0373	–
x2 = 0.7418	–	0.0315
x2 = 0.7421	0.0335	–
x2 = 0.8117	–	0.0265
x2 = 0.8119	0.027	–
x2 = 0.8518	–	0.021
x2 = 0.8962	0.017	–
x2 = 0.8995	–	0.0158
x2 = 0.92	–	0.0124
x2 = 0.9201	0.0141	–
x2 = 0.9453	0.00932	–
x2 = 0.9718	–	0.00454
x2 = 0.9719	0.00478	–
